Patent publication US20230398105A1, “TREATMENT REGIMENS FOR PARKINSON'S DISEASE” (BIAL - PORTELA & Cª, S.A., priority 2020, published 2023)

Experiments:
[1] = tested on: Parkinson's disease patients; assay: Pooled BIPARK-I and BIPARK-II: treatment-emergent adverse events in the safety set; assay type: in vivo, human
Text: The term “treatment-emergent adverse events” is defined as any event not present before exposure to the study drug or any event already present that worsens in either intensity or frequency after first intake of study drug until 2 weeks after last intake of the study drug.
(§1) The results of the two multi-centered double-blinded (DB) randomized placebo-controlled trials BIPARK-I (Ferreira et al., Lancet Neurol., 2016, 15, 154-65) and BIPARK-II (Lees et al., JAMA Neurol., 2017, 74, 197-206) were pooled together. Both clinical trials were performed to evaluate the efficacy and safety of opicapone in addition to levodopa-treated patients with moderate end-of-dose motor fluctuations. All patients had signs of end-of-dose deterioration for at least 4 weeks before screening, with a mean total awake off-time (state of akinesia or decreased mobility) of at least 1.5 hours, excluding morning akinesia. Eligible patients were randomized at baseline to the double-blind phase using a computer-generated scheme (administered by Cenduit, LLC) in a ratio of 1:1:1 to the addition of oral capsular opicapone, 25 mg/day or 50 mg/day, or matching placebo. The double-blind phase assessments occurred at 4-week intervals and the total duration of the double-blind phase could be 14 to 15 weeks. Full details of the inclusion and exclusion criteria and on study design are described in Ferreira et al., Lancet Neurol., 2016, 15, 154-65 and Lees et al., JAMA Neurol., 2017, 74, 197-206, which are incorporated herein by reference. Reductions in the daily dose (but not frequency) of levodopa were allowed between baseline and 3 to 4 weeks after baseline according to the clinical response but were not permitted thereafter.
(§2) Opicapone was synthesised as described in WO 2013/089573 and formulated into 25 or 50 mg capsules as described in WO 2010/114405. Study treatment (opicapone or matching placebo) was taken orally once daily in the evening at least 1 hour after the last daily dose of levodopa/DDCI (considered the bedtime dose).

[2] = tested on: Parkinson's disease patients; details: BIPARK-I; patients with end-of-dose motor fluctuations; cited from earlier work
[3] = tested on: Parkinson's disease patients; assay: Pooled BIPARK-I and BIPARK-II post-hoc analysis: change from baseline in absolute off-time; assay type: in vivo, human; details: after 14-15 weeks
Text: The term “absolute off-time” is the combined total daily of 30-minute periods spent in an “off” state. Conversely, the term “absolute on-time” is the combined total daily of 30-minute periods spent in an “on” state. Periods where the patient is asleep are excluded from either group.
The term “unpredictable motor fluctuations”, also known as “unpredictable on/off fluctuations” or “on/off phenomenon”, relates to the unpredictable re-emergence or worsening of symptoms at any time, such as severe troublesome dyskinesias, severe/unpredictable end-of-dose motor fluctuations, painful “off” dystonia and morning akinesia (Fabbri M. et al., Mov. Disord., 2018, 33, 1528-1539). Unpredictable motor fluctuations are unrelated to the timing of the next dose and may occur at any time during the day. […] Within the clinical trials analysed, unpredictable on/off fluctuations were defined as present if clinicians scored “NO” at the UPDRS item 36 (“Are “off” periods predictable?”), or “YES” in at least one of the following UPDRS items: 37 (“Are “off” periods unpredictable?”) and 38 (“Do “off” periods come on suddenly, within a few seconds?”).
as §1
(§3) Populations undergoing analysis included all randomized patients who took at least 1 dose of study medication and had at least 1 post-baseline off-time assessment. The post-hoc analysis described herein, analyzed Parkinson's disease patients with (“YES”) and without (“NO”) unpredictable on/off fluctuations.
(§4) The primary efficacy variable was the change from baseline in absolute off-time. As secondary end-point, the inventors analyzed the absolute on-time as well as the proportions of patients achieving at least a 1-hour reduction in absolute off-time and/or the proportions of patients achieving at least a 1-hour increase in absolute on-time at the end of the double-blind phase, defined as “responders”.
(§5) Changes from baseline were analysed using ANCOVA with treatment group included as fixed effect factor and the baseline scale score as a covariate. CMH-Test was used to assess differences between OPC dose levels and Placebo taking study into account as a factor.
as §2

[4] = tested on: Parkinson's disease patients; assay: Pooled BIPARK-I and BIPARK-II: OFF-time and ON-time responder rates (≥1 hour) at endpoint; assay type: in vivo, human
Text: The term “responders” is defined as patients achieving at least a 1-hour reduction in absolute off-time and/or the proportions of patients achieving at least a 1-hour increase in absolute on-time at the end of the double-blind phase of the trial.
as §1, §3, §4, §5, §2

[5] = 25 mg, NO: without unpredictable motor fluctuations, N = 143
[6] = 25 mg, YES: unpredictable motor fluctuations, N = 98
[7] = 50 mg, NO: without unpredictable motor fluctuations, N = 175
[8] = 50 mg, YES: unpredictable motor fluctuations, N = 87
[9] = 25 mg, NO: without unpredictable motor fluctuations
[10] = 25 mg, YES: with unpredictable motor fluctuations
[11] = 50 mg, NO: without unpredictable motor fluctuations
[12] = 50 mg, YES: with unpredictable motor fluctuations

Cc1c(Cl)c(C)[n+]([O-])c(Cl)c1-c1noc(-c2cc(O)c(O)c([N+](=O)[O-])c2)n1 [opicapone, 2,5-dichloro-3-[5-(3,4-dihydroxy-5-nitrophenyl)-1,2,4-oxadiazol-3-yl]-4,6-dimethylpyridine 1-oxide]
Incidence of Related Serious TEAEs [1, 5]: 0 number (%)
Incidence of Serious TEAEs [1, 5]: 2 (0.8) number (%)
Incidence of any TEAEs leading to Discontinuation [1, 5]: 7 (2.9) number (%)
TEAE: Anxiety [1, 5]: 0 number (%)
TEAE: Back pain [1, 5]: 4 (2.7) number (%)
TEAE: Constipation [1, 5]: 9 (6.2) number (%)
TEAE: Dizziness [1, 5]: 7 (4.8) number (%)
TEAE: Dry mouth [1, 5]: 8 (5.5) number (%)
TEAE: Dyskinesias [1, 5]: 14 (9.6) number (%)
TEAE: Falls [1, 5]: 3 (2.1) number (%)
TEAE: Headache [1, 5]: 6 (4.1) number (%)
TEAE: Hypertension [1, 5]: 6 (4.1) number (%)
TEAE: Insomnia [1, 5]: 11 (7.5) number (%)
TEAE: Nausea [1, 5]: 5 (3.4) number (%)
TEAE: Parkinson's disease [1, 5]: 4 (2.7) number (%)
TEAE: Somnolence [1, 5]: 3 (2.1) number (%)
TEAE: Urinary tract infection [1, 5]: 1 (0.7) number (%)
TEAE: ↑CPK (Blood creatine phosphokinase) [1, 5]: 4 (2.7) number (%)
Incidence of Serious TEAEs [1, 6]: 3 (1.2) number (%)
Incidence of any TEAEs leading to Discontinuation [1, 6]: 6 (2.5) number (%)
TEAE: Anxiety [1, 6]: 5 (5.1) number (%)
TEAE: Back pain [1, 6]: 1 (1.0) number (%)
TEAE: Constipation [1, 6]: 3 (3.1) number (%)
TEAE: Dizziness [1, 6]: 3 (3.1) number (%)
TEAE: Dry mouth [1, 6]: 8 (8.2) number (%)
TEAE: Dyskinesias [1, 6]: 25 (25.5) number (%)
TEAE: Falls [1, 6]: 8 (8.2) number (%)
TEAE: Headache [1, 6]: 2 (2.0) number (%)
TEAE: Hypertension [1, 6]: 4 ( 4.1) number (%)
TEAE: Insomnia [1, 6]: 6 (6.1) number (%)
TEAE: Nausea [1, 6]: 6 (6.1) number (%)
TEAE: Parkinson's disease [1, 6]: 7 (7.1) number (%)
TEAE: Somnolence [1, 6]: 7 (7.1) number (%)
TEAE: Urinary tract infection [1, 6]: 3 (3.1) number (%)
TEAE: Weight decrease [1, 6]: 0 number (%)
TEAE: ↑CPK (Blood creatine phosphokinase) [1, 6]: 3 (3.1) number (%)
Incidence of Serious TEAEs [1, 7]: 6 (2.3) number (%)
Incidence of any TEAEs leading to Discontinuation [1, 7]: 13 (4.9) number (%)
TEAE: Back pain [1, 7]: 1 (0.6) number (%)
TEAE: Constipation [1, 7]: 10 (5.6) number (%)
TEAE: Dizziness [1, 7]: 5 (2.8) number (%)
TEAE: Dry mouth [1, 7]: 5 (2.8) number (%)
TEAE: Dyskinesias [1, 7]: 35 (19.7) number (%)
TEAE: Falls [1, 7]: 3 (1.7) number (%)
TEAE: Headache [1, 7]: 7 (3.9) number (%)
TEAE: Hypertension [1, 7]: 7 (3.9) number (%)
TEAE: Insomnia [1, 7]: 6 (3.4) number (%)
TEAE: Nausea [1, 7]: 6 (3.4) number (%)
TEAE: Parkinson's disease [1, 7]: 5 (2.8) number (%)
TEAE: Somnolence [1, 7]: 3 (1.7) number (%)
TEAE: Urinary tract infection [1, 7]: 9 (5.1) number (%)
TEAE: Weight decrease [1, 7]: 9 (5.1) number (%)
TEAE: ↑CPK (Blood creatine phosphokinase) [1, 7]: 12 (6.7) number (%)
Incidence of Related Serious TEAEs [1, 8]: 1 (0.4) number (%)
Incidence of Serious TEAEs [1, 8]: 7 (2.6) number (%)
Incidence of any TEAEs leading to Discontinuation [1, 8]: 10 (3.8) number (%)
TEAE: Anxiety [1, 8]: 3 (3.4) number (%)
TEAE: Back pain [1, 8]: 2 (2.3) number (%)
TEAE: Constipation [1, 8]: 7 (8.0) number (%)
TEAE: Dizziness [1, 8]: 4 (4.6) number (%)
TEAE: Dry mouth [1, 8]: 3 (3.4) number (%)
TEAE: Dyskinesias [1, 8]: 19 (21.8) number (%)
TEAE: Falls [1, 8]: 5 (5.7) number (%)
TEAE: Headache [1, 8]: 3 (3.4) number (%)
TEAE: Hypertension [1, 8]: 1 (1.1) number (%)
TEAE: Insomnia [1, 8]: 3 (3.4) number (%)
TEAE: Nausea [1, 8]: 2 (2.3) number (%)
TEAE: Parkinson's disease [1, 8]: 1 (1.1) number (%)
TEAE: Somnolence [1, 8]: 2 (2.3) number (%)
TEAE: Urinary tract infection [1, 8]: 1 (1.1) number (%)
TEAE: Weight decrease [1, 8]: 1.1 (0.4) number (%)
TEAE: ↑CPK (Blood creatine phosphokinase) [1, 8]: 1 (1.1) number (%)
Safety in patients with unpredictable motor fluctuations ([1]; patients with unpredictable motor fluctuations): safe
ability to reduce the time patients spent in the off state, vs. entacapone [2]: non-inferior
ability to reduce the time patients spent in the off state, vs. placebo combined with levodopa/DCCI [2]: superior
Absolute off-time, change from baseline vs. placebo ([3]; 25 mg vs. placebo, NO: patients without unpredictable motor fluctuations): -20.4 min
Absolute off-time, change from baseline vs. placebo ([3]; 25 mg vs. placebo, Total patients): -40.7 min
Absolute off-time, change from baseline vs. placebo ([3]; 25 mg vs. placebo, YES: patients with unpredictable motor fluctuations): -61 min
Absolute off-time, change from baseline to end-point ([3]; 25 mg, NO: patients without unpredictable motor fluctuations): -73.6 min
Absolute off-time, change from baseline to end-point ([3]; 25 mg, Total patients): -98.7 min
Absolute off-time, change from baseline to end-point ([3]; 25 mg, YES: patients with unpredictable motor fluctuations): -123.8 min
Absolute off-time, change from baseline vs. placebo ([3]; 50 mg vs. placebo, Total patients): -64 min
Absolute off-time, change from baseline to end-point ([3]; 50 mg, NO: patients without unpredictable motor fluctuations): -104.7 min
Absolute off-time, change from baseline to end-point ([3]; 50 mg, Total patients): -122 min
Absolute off-time, change from baseline to end-point ([3]; 50 mg, YES: patients with unpredictable motor fluctuations): -139.3 min
responders, off-time reduced (≥1 hour) [4, 9]: 58.7%
responders, on-time increased (≥1 hour) [4, 9]: 53.8%
responders, off-time reduced (≥1 hour) [4, 10]: 65.3%
responders, on-time increased (≥1 hour) [4, 10]: 69.4%
responders, off-time reduced (≥1 hour) [4, 11]: 68.6%
responders, on-time increased (≥1 hour) [4, 11]: 61.7%
responders, off-time reduced (≥1 hour) [4, 12]: 65.5%
responders, on-time increased (≥1 hour) [4, 12]: 66.7%
